# Legend:
# CYP1A = test: Cytochrome P450 induction assay in rat primary hepatocytes, CYP1A; format: in vitro ADME; details: 1.0 μM, 3 days
# Source text: %Activity=(averagearearatiooftreated/averagearearatioofbasalcontrol)x100
# [1] = Cytotoxicity in rat primary hepatocytes (resazurin); details: male, Wistar, rat, freshly isolated rat primary hepatocytes
# NCI leukemia cell lines = details: cited from earlier work
# [2] = system: BGC823 (gastric cancer cells) xenograft; set-up: method as in earlier work; details: cited from earlier work
# [3] = system: NCI60 human cancer cell line panel; details: ref cisplatin NSC number 119875; cited from earlier work
compound,measurement,setting,value
"Cc1ccc2cc3c(ccc4ccccc43)c3c2c1CC3 [3-Methyl cholanthrene, reference compound]",Fold induction CYP1A,CYP1A,10.9
same,"fold induction at 3 days, 1 µM","CYP1A; rat, rat primary hepatocytes, probe phenacetin (100 μM in HBSS)",> 10
"CC/C(=C(\c1ccccc1)c1ccc(OCCN(C)C)cc1)c1ccccc1 [Tamoxifen, reference compound]",IC50 at 72 h,[1],5.1 µM
O=C([O-])c1ccccc1C(=O)[O-].[Cu+2].c1cnc2c(c1)ccc1cccnc12 [[Cu(o-phthalate)(phenanthroline)]],sensitivity of most NCI leukemia cell lines,NCI leukemia cell lines,resistant
N.N.[Cl][Pt][Cl] [cisplatin],organ damage,[2]; 4 mg/kg,considerable damage to liver and kidney
same,"xenograft growth, compared with [Ru(dmb)2(salH)]PF6",[2]; 4 mg/kg,slightly less effective
same,GI50,[3],1.49 µM
[Ru(dmb)2(salH)]PF6,toxicity compared to cisplatin,[2]; 5 mg/kg,insignificant nephrotoxicity and nephrotoxicity
same,xenograft growth,[2]; 5 mg/kg,significantly suppressed

# From publication PMC5766233, “Ternary copper(II) complex: NCI60 screening, toxicity studies, and evaluation of efficacy in xenograft models of nasopharyngeal carcinoma” (PLoS ONE, 2018)
